Data set [1] concerns Mus musculus. In words: Anticonvulsant activity in ip dosed albino mouse assessed as inhibition of maximal electric shock-induced seizures after 0.5 hrs. Format: functional.
For data set [2], the system named is Mus musculus. Put plainly: Anticonvulsant activity in ip dosed albino mouse assessed as inhibition of maximal electric shock-induced seizures after 4 hrs. It is filed as functional.
Data set [3] deals with Mus musculus. In words: Anticonvulsant activity in ip dosed albino mouse assessed as inhibition of subcutaneous pentylenetetrazole-induced seizure after 0.5 hrs. Format: functional.
Data set [4] has as its system Mus musculus. Put plainly: Neurotoxicity in ip dosed albino mouse assessed as minimal motor impairment after 0.5 hrs by rotarod test. It is filed as toxicity, organism-based. The following applies: in vivo. (In the rotarod test animals must keep their balance on a rotating rod.)
For data set [5], the system named is Mus musculus. Put plainly: Neurotoxicity in ip dosed albino mouse assessed as minimal motor impairment after 4 hrs by rotarod test. It is filed as toxicity, organism-based. The following applies: in vivo.
Data set [6] relates to Rattus norvegicus. In words: Antidepressant activity against Wistar rat assessed as increase in immobility time at 30 mg/kg, ip after 60 mins by forced swim pool method. It is filed as functional. As to conditions: route intraperitoneal.
For data set [7], the system named is Mus musculus. In words: Anticonvulsant activity in ip dosed albino mouse assessed as inhibition of subcutaneous pentylenetetrazole-induced seizure after 4 hrs. It is filed as functional.
Data set [8] has as its system Mus musculus. Put plainly: Behavioral activity in albino mouse assessed as decrease in locomotor activity at 100 mg/kg, ip by actophotometer. As to conditions: route intraperitoneal. It is filed as functional.
Data set [9] relates to Rattus norvegicus. In words: Antidepressant activity in Wistar rat assessed as increase in immobility time at 100 mg/kg, ip after 60 min by forced swim pool method. As to conditions: route intraperitoneal. Format: functional.

Activity calls are given as the source filed them. The rule behind the calls is not given here.

As for `NC(=O)N1c2ccccc2C=Cc2ccccc21` [CARBAMAZEPINE], the outcome in the data set on Mus musculus [1], in the data set on Mus musculus [2] and in the data set on Mus musculus [7] was inactive. Also, the Activity was 300 mg/kg with Mus musculus [3], “Not Active” in the data set with Mus musculus [4] and “Not Active” with Mus musculus [5]. The Time in the data set with Rattus norvegicus [6] is listed as 168.32 s.

Regarding `COc1ccc(NC(=O)Nn2c(-c3ccccc3)nc3ccccc3c2=O)cc1`, the result in the data set with Mus musculus [1], in the data set on Mus musculus [2] and in the data set with Mus musculus [7] was inactive. Further, the Activity with Mus musculus [3] was 300 mg/kg; with Mus musculus [4] it was 300 mg/kg; in the data set with Mus musculus [5], “Not Active”. In the data set with Mus musculus [8], the inhibition in vivo at 100 mg/kg was 52%. Also, the Time in the data set with Rattus norvegicus [9] is listed as 229.15 s.

On to `CCOc1ccc(NC(=O)Nn2c(-c3ccccc3)nc3ccccc3c2=O)cc1`, for which the outcome in the data set on Mus musculus [1], in the data set with Mus musculus [2], in the data set on Mus musculus [3] and in the data set on Mus musculus [7] was inactive. The Activity in the data set on Mus musculus [4] was 100 mg/kg; with Mus musculus [5], “Not Active”. The inhibition in vivo at 100 mg/kg in the data set on Mus musculus [8] is 53%. The Time in the data set on Rattus norvegicus [9] stood at 273.22 s.

On to `CCc1ccc(NC(=O)Nn2c(-c3ccccc3)nc3ccccc3c2=O)cc1`, for which the outcome in the data set with Mus musculus [1], in the data set with Mus musculus [2], in the data set with Mus musculus [3] and with Mus musculus [7] was inactive. Further, the Activity result in the data set on Mus musculus [4] and in the data set with Mus musculus [5] was “Not Active” throughout. In the data set on Mus musculus [8], the inhibition in vivo at 100 mg/kg stood at 61%. Also, the Time with Rattus norvegicus [9] stood at 213.13 s.

As for `CCc1nc2ccccc2c(=O)n1NC(=O)Nc1cccc(C)c1`, the result in the data set on Mus musculus [1], with Mus musculus [2], in the data set on Mus musculus [3] and in the data set with Mus musculus [7] was inactive. The Activity result in the data set on Mus musculus [4] and with Mus musculus [5] was “Not Active” throughout. In addition, in the data set on Mus musculus [8], the inhibition in vivo at 100 mg/kg amounted to 53%. In the data set with Rattus norvegicus [9], the Time is on record as 165.63 s.

Usually inhibition in vivo stands for the change of the read-out against control, counted positive when it falls.

For the origin of these results see ChEMBL document CHEMBL1155968, “Synthesis, anticonvulsant and CNS depressant activity of some new bioactive 1-(4-substituted-phenyl)-3-(4-oxo-2-phenyl/ethyl-4H-quinazolin-3-yl)-urea” (Eur J Med Chem, 2009).
